Molecules are shown by their SMILES. pIC50: −log10 of the molar value. Structures can show the parent of a compound that is named as a salt. Bounds are passed on as bounds.

One data set concerns influenza virus. To be noted: cited from earlier work.
Data set [1] has as its system some other cellular lines. To be noted: cited from earlier work.
For data set [2], the system named is virus of hepatitis C strain JFH-1 (genotype 2a). Description: microbe, parasite or virus in culture. Format: cell-based. To be noted: for Therapeutic index SI50 = TC50/IC50: HCV; for pIC50: Hepatitis C virus, Huh-7.5.1, Huh7.5.1 cells, HCV JFH-1, 72 hours incubation, read-out: IC50 (IC50^HCV, antiviral activity).
The nature of the next data set: in vitro. To be noted: human.

For `CCOC(=O)c1c(CSc2ccccc2)n(C)c2cc(Br)c(O)c(CN(C)C)c12.Cl` [Arbidol, ethyl 6-bromo-4-[(dimethylamino)methyl]-5-hydroxy-1-methyl-2-(phenylthiomethyl)-1H-indole-3-carboxylate hydrochloride], the IC50 in the data set with influenza virus was 23.2 MκΓ/ml. Further, the TC50 in data set [1] is 15 to 25 µg/mL.

By pIC50 is commonly meant −log10 of the IC50, conventionally taken in molar units. In the case of `CCOC(=O)c1c(CSc2ccccc2)n(C)c2cc(C#N)c(O)c(CN(C)C)c12` [1.1(15)], in data set [2], the “Therapeutic index SI50 = TC50/IC50” value is recorded as over 4 and the pIC50 was 4.55. In “in vitro”, this compound returned a CC50 of over 100 µM.

In the case of `CCOC(=O)c1c(CN2CCCC2)n(C)c2cc(-c3cccnc3)c(O)c(CN(C)C)c12` [1.1.5(5c), ethyl 4-((dimethylamino)methyl)-5-hydroxy-1-methyl-6-(pyridin-3-yl)-2-(pyrrolidin-1-ylmethyl)-1H-indole-3-carboxylate hydrochloride], in data set [2], the “Therapeutic index SI50 = TC50/IC50” value is given as over 20 and the negative logarithm of the IC50 (pIC50) was over 5.30. This compound also returned a CC50 in the data set “in vitro” of over 100 µM.

These data come from patent US8329689B2 (priority 2006, dated 2012).
